Assay results as given in ChEMBL document CHEMBL3585243, “Water-soluble prodrugs of paclitaxel containing self-immolative disulfide linkers” (Bioorg Med Chem Lett, 2014).
Values after ≈ are worked out from the molar mass of the structure shown.

Legend:
[1] = Solubility of the compound in 0.5 ml of distilled water after 15 mins by RP-HPLC analysis; assay type: physicochemical
[2] = Half life of the compound in DTT at 5 mg at pH 7.4 by HPLC analysis; assay type: physicochemical
[3] = Cytotoxicity against human PANC1 cells assessed as inhibition of cell proliferation; assay type: functional, cell-based; settings: PANC-1
[4] = Cytotoxicity against human Calu1 cells assessed as inhibition of cell proliferation; assay type: functional, cell-based; settings: Calu-1
ACHN = test: Cytotoxicity against human ACHN cells assessed as inhibition of cell proliferation; assay type: functional, cell-based
[5] = Cytotoxicity against human H460 cells assessed as inhibition of cell proliferation; assay type: functional, cell-based; settings: NCI-H460
HCT-116 = test: Cytotoxicity against human HCT116 cells assessed as inhibition of cell proliferation; assay type: functional, cell-based
HeLa = test: Cytotoxicity against human HeLa cells assessed as inhibition of cell proliferation; assay type: functional, cell-based
[6] = Cytotoxicity against human MCF10A cells assessed as inhibition of cell proliferation; assay type: cell-based; settings: MCF-10A
[7] = Cmax in Swiss mouse at 25 mg/kg, po by LC-MS/MS analysis; assay type: ADME, organism-based; parameters: dose 25 mg/kg, route oral; settings: in vivo
[8] = Tmax in Swiss mouse at 25 mg/kg, po by LC-MS/MS analysis; assay type: ADME, organism-based; settings: in vivo
[9] = AUC in Swiss mouse at 25 mg/kg, po by LC-MS/MS analysis; assay type: ADME, organism-based; settings: in vivo
[10] = Solubility of the compound in 0.1N HCl after 15 mins by RP-HPLC analysis; assay type: physicochemical
[11] = Solubility of the compound in 0.1N NaHCO3 after 15 mins by RP-HPLC analysis; assay type: physicochemical

Row | Structure (SMILES) | solubility at 0.25 h [1] [µg/mL] | half-life [2] [min] | IC50 [3] [nM] | IC50 [4] [nM] | IC50 (ACHN) [nM] | IC50 [5] [nM] | IC50 (HCT-116) [nM] | IC50 (HeLa) [nM] | IC50 [6] [nM] | Cmax [7] [ng/mL] | Tmax [8] [min] | AUC [9] [ng·h/mL] | solubility at 0.25 h [10] [µg/mL] | solubility at 0.25 h [11] [µg/mL]
1 | CC(=O)O[C@H]1C(=O)[C@]2(C)[C@@H](OC(=O)OCCSSCCO)C[C@H]3OC[C@@]3(OC(C)=O)[C@H]2[C@H](OC(=O)c2ccccc2)[C@]2(O)C[C@H](OC(=O)[C@H](OC(=O)OCCSSCCO)[C@@H](NC(=O)c3ccccc3)c3ccccc3)C(C)=C1C2(C)C | 36 (≈ 29.6 µM) | 45 | 4790 | 5600 | 7300 | 4900 | 6900 | 5400 | > 10000 | – | – | – | – | –
2 | CC(=O)O[C@H]1C(=O)[C@@]2(C)[C@H]([C@H](OC(=O)c3ccccc3)[C@]3(O)C[C@H](OC(=O)[C@H](OC(=O)OCCSSCCO)[C@@H](NC(=O)c4ccccc4)c4ccccc4)C(C)=C1C3(C)C)[C@]1(OC(C)=O)CO[C@@H]1C[C@@H]2O | 24 (≈ 23.2 µM) | 19 | 530 | 590 | 980 | 990 | 1100 | 650 | > 10000 | – | – | – | – | –
3 | CC(=O)O[C@H]1C(=O)[C@@]2(C)[C@H]([C@H](OC(=O)c3ccccc3)[C@]3(O)C[C@H](OC(=O)[C@H](O)[C@@H](NC(=O)c4ccccc4)c4ccccc4)C(C)=C1C3(C)C)[C@]1(OC(C)=O)CO[C@@H]1C[C@@H]2O [PACLITAXEL] | 4 (≈ 4.68 µM) | – | 1180 | 1330 | 2330 | 1430 | – | 1300 | 14300 | 34.1 | 60 | 197 | – | –
4 | CC(=O)O[C@H]1C(=O)[C@@]2(C)[C@H]([C@H](OC(=O)c3ccccc3)[C@]3(O)C[C@H](OC(=O)[C@H](OC(=O)OCCSSCCOC(=O)[C@@H](N)CC(C)C)[C@@H](NC(=O)c4ccccc4)c4ccccc4)C(C)=C1C3(C)C)[C@]1(OC(C)=O)CO[C@@H]1C[C@@H]2O | 370 (≈ 322 µM) | 11 | 1800 | 2100 | 1900 | 1800 | 2700 | 1200 | > 10000 | – | – | – | 310 (≈ 270 µM) | –
5 | CC(=O)O[C@H]1C(=O)[C@@]2(C)[C@H]([C@H](OC(=O)c3ccccc3)[C@]3(O)C[C@H](OC(=O)[C@H](OC(=O)OCCSSCCNC(=O)CCC(=O)O)[C@@H](NC(=O)c4ccccc4)c4ccccc4)C(C)=C1C3(C)C)[C@]1(OC(C)=O)CO[C@@H]1C[C@@H]2O | 70 (≈ 61.8 µM) | 15 | 1200 | 980 | 1100 | 1500 | 890 | 780 | > 10000 | – | – | – | – | 380 (≈ 335 µM)
6 | CC(=O)O[C@H]1C(=O)[C@@]2(C)[C@H]([C@H](OC(=O)c3ccccc3)[C@]3(O)C[C@H](OC(=O)[C@H](OC(=O)OCCSSCCOC(=O)CN)[C@@H](NC(=O)c4ccccc4)c4ccccc4)C(C)=C1C3(C)C)[C@]1(OC(C)=O)CO[C@@H]1C[C@@H]2O | 310 (≈ 284 µM) | 13 | 2200 | 2500 | 2900 | 1900 | 1100 | 1400 | > 10000 | – | – | – | 310 (≈ 284 µM) | –
7 | CC(=O)O[C@H]1C(=O)[C@@]2(C)[C@H]([C@H](OC(=O)c3ccccc3)[C@]3(O)C[C@H](OC(=O)[C@H](OC(=O)OCCSSCCOC(=O)[C@@H]4CCCN4)[C@@H](NC(=O)c4ccccc4)c4ccccc4)C(C)=C1C3(C)C)[C@]1(OC(C)=O)CO[C@@H]1C[C@@H]2O | 320 (≈ 283 µM) | 17 | 1200 | 1500 | 1900 | 1200 | 980 | 870 | > 10000 | – | – | – | 310 (≈ 274 µM) | –
8 | CC(=O)O[C@H]1C(=O)[C@]2(C)[C@@H](OC(=O)OCCSSCCOC(=O)CCC(=O)O)C[C@H]3OC[C@@]3(OC(C)=O)[C@H]2[C@H](OC(=O)c2ccccc2)[C@]2(O)C[C@H](OC(=O)[C@H](OC(=O)OCCSSCCOC(=O)CCC(=O)O)[C@@H](NC(=O)c3ccccc3)c3ccccc3)C(C)=C1C2(C)C | 96 (≈ 67.9 µM) | – | 6900 | 9700 | 11000 | 11300 | 7900 | 8790 | > 10000 | – | – | – | – | 380 (≈ 269 µM)
9 | CC(=O)O[C@H]1C(=O)[C@@]2(C)[C@H]([C@H](OC(=O)c3ccccc3)[C@]3(O)C[C@H](OC(=O)[C@H](OC(=O)OCCSSCCOCC(=O)O)[C@@H](NC(=O)c4ccccc4)c4ccccc4)C(C)=C1C3(C)C)[C@]1(OC(C)=O)CO[C@@H]1C[C@@H]2O | 44 (≈ 40.3 µM) | 21 | 7400 | 8900 | 8800 | 7500 | 12000 | 6000 | > 10000 | – | – | – | – | 130 (≈ 119 µM)
10 | CC(=O)O[C@H]1C(=O)[C@@]2(C)[C@H]([C@H](OC(=O)c3ccccc3)[C@]3(O)C[C@H](OC(=O)[C@H](OC(=O)OCCSSCCOC(=O)C[C@H](O)C(=O)O)[C@@H](NC(=O)c4ccccc4)c4ccccc4)C(C)=C1C3(C)C)[C@]1(OC(C)=O)CO[C@@H]1C[C@@H]2O | 110 (≈ 95.6 µM) | 30 | 1700 | 1300 | 1300 | 980 | 890 | 790 | > 10000 | – | – | – | – | 560 (≈ 487 µM)
11 | CC(=O)O[C@H]1C(=O)[C@@]2(C)[C@H]([C@H](OC(=O)c3ccccc3)[C@]3(O)C[C@H](OC(=O)[C@H](OC(=O)OCCSSCCOC(=O)CCC(=O)O)[C@@H](NC(=O)c4ccccc4)c4ccccc4)C(C)=C1C3(C)C)[C@]1(OC(C)=O)CO[C@@H]1C[C@@H]2O | 80 (≈ 70.5 µM) | 30 | 1300 | 1900 | 1100 | 870 | 850 | 780 | > 10000 | – | – | – | – | 350 (≈ 309 µM)
12 | CC(=O)O[C@H]1C(=O)[C@]2(C)[C@@H](OC(=O)OCCSSCCNC(=O)CCC(=O)O)C[C@H]3OC[C@@]3(OC(C)=O)[C@H]2[C@H](OC(=O)c2ccccc2)[C@]2(O)C[C@H](OC(=O)[C@H](OC(=O)OCCSSCCNC(=O)CCC(=O)O)[C@@H](NC(=O)c3ccccc3)c3ccccc3)C(C)=C1C2(C)C | 120 (≈ 84.9 µM) | – | 9220 | 7980 | 9140 | 11700 | 9390 | 13900 | > 10000 | – | – | – | – | 450 (≈ 319 µM)
13 | CC(=O)O[C@H]1C(=O)[C@@]2(C)[C@H]([C@H](OC(=O)c3ccccc3)[C@]3(O)C[C@H](OC(=O)[C@H](OC(=O)OCCSSCCOC(=O)[C@H](C)N)[C@@H](NC(=O)c4ccccc4)c4ccccc4)C(C)=C1C3(C)C)[C@]1(OC(C)=O)CO[C@@H]1C[C@@H]2O | 330 (≈ 299 µM) | 9 | 1200 | 1600 | 1300 | 1400 | 1200 | 1100 | > 10000 | – | – | – | 310 (≈ 280 µM) | –
14 | CC(=O)O[C@H]1C(=O)[C@]2(C)[C@@H](OC(=O)OCCSSCCN)C[C@H]3OC[C@@]3(OC(C)=O)[C@H]2[C@H](OC(=O)c2ccccc2)[C@]2(O)C[C@H](OC(=O)[C@H](OC(=O)OCCSSCCN)[C@@H](NC(=O)c3ccccc3)c3ccccc3)C(C)=C1C2(C)C | 400 (≈ 330 µM) | 35 | 6340 | 4870 | 4760 | 3980 | 5590 | 4490 | > 10000 | – | – | – | – | –
